The source of these data is patent US11357971B2, “Ion pump with hyperbranched polymers” (OBOE IPR AB, priority 2016, dated 2022).

Test [1] relates to Arabidopsis thaliana seedlings (root apical meristem). In words: Root growth rate of A. thaliana seedlings during OEIP delivery. The settings on record: for effect on root growth rate: OEIP delivery, 60 min, compared with non-targeted seedlings. The format is in vivo. The source says:
The dPG-based OEIPs were used for in vivo experiments on a highly accessible model plant system suitable for live-cell imaging in the intact organism. Specifically, the apical root meristem and early elongation zone of four-day-old Arabidoposis thaliana seedlings positioned on agar gel were targeted for delivery of IAA via the OEIP. Root tips were monitored using a horizontally oriented Nikon AZ100 spectral macro-confocal laser-scanning microscope system schematically illustrated in FIG. 3a. In this arrangement, seedlings were positioned and imaged vertically.
As a negative control, benzoic acid^15 was delivered by the OEIP device, operated in the same configuration.
(§1) To this end, seeds of both genotypes and wild-type Col-0 were surface sterilized with 70% ethanol for 1 min, incubated in pool cleaner (Biltema, Sweden; one tablet per 2000 ml H2O) for 12 min, and washed four times with sterile, distilled water (dH2O). After 3 days at 4° C. in the dark, seeds were plated and grown on ½ Murashige and Skoog (MS) (Duchefa Biochemie, Haarlem, The Netherlands), 0.5 g/L 2-(N-morpholino)ethanesulfonic acid (MES, Sigma-Aldrich), 1% sucrose, 0.7% plant agar (Duchefa) growth medium plates (120×120 mm square petri-dishes; Gosselin) at pH 5.6 in vertical orientation at 23° C. with 16 h of light per day. 12 h prior to the start of the experiments, 4 days post-germination (dpg) seedlings were positioned onto fresh plates of identical MS media composition additionally supplemented with 0.01 M KCl.
Immediately prior to the experiments, the OEIPs were operated in a target solution of 10^−5 M KCl(aq), and the OEIP device tip was kept from drying excessively during sample loading and OEIP positioning. A Keithley 2612b SourceMeter (Keithley Instruments Inc, Cleveland, Ohio, USA) and custom LabVIEW (National Instruments Corporation, Austin, Tex., USA) software was use to source current and record voltage. The OEIP device was turned on immediately prior to the first imaging sequence and operated at a constant electrical current of 1 μA. For these experiments, the OEIP delivery tip was submerged in the MS media in close proximity (100-200 μm) to the root epidermal tissue (FIG. 3b,c) and was held at a fixed position in the growth MS media for the duration of each trial.

In test [2] the test system is DII-Venus auxin-response reporter. The test can be described thus: DII-Venus fluorescent auxin-response reporter seedlings, OEIP delivery. Format: in vivo, Arabidopsis thaliana. The settings on record: for effect on DII-Venus fluorescence intensity: OEIP delivery to root tip, signal falls in presence of auxin.
Excerpt: The DII-Venus reporter is characterized by absence or reduction in fluorescent signal intensity in the presence of auxin or increasing auxin levels, respectively. Conversely, in DR5, the presence or gain of fluorescent signal intensity indicates presence or increase of auxin concentrations, respectively. The relative auxin abundance is visualized faster by DII-Venus than by DR5^15, because the DII-Venus signal relies on a protein degradation mechanism rather than the slower transcriptional and translational production mechanisms of DR5.
Using DII-Venus seedlings, the fluorescent signal intensity was monitored and onset of strong fluorescence reduction was observed between 30 to 60 min (FIG. 5a,b).
as §1, with “12 h prior to the start of the experiments, 4 days post-germination (dpg) seedlings were positioned onto fresh plates of identical MS media composition additionally supplemented with 0.01 M KCl.” left out
A custom reoriented macro confocal laser-scanning microscope with a vertical stage was used to acquire images (Bergman-Labora, Sweden). The macro confocal consisted of a horizontally placed AZ100 macroscope (Nikon, Japan) adapted with a specially built XYZ motorized stage (Prior Scientific fitted by Bergman-Labora) and supplied with diascopic white light and episcopic fluorescence light (Nikon). […] Excitation was at 488 nm and emission detected with a 525/50 filter. DII Venus fluorescence intensities from a single layer were normalized to initial intensity, averaged and compared (Standard deviation of the mean). […]

Test [3] relates to DR5rev:GFP auxin-response reporter. The test can be described thus: DR5rev:GFP fluorescent auxin-response reporter seedlings, OEIP delivery to elongation zone. Format: in vivo, Arabidopsis thaliana. Conditions: root elongation zone.
Excerpt: A custom reoriented macro confocal laser-scanning microscope with a vertical stage was used to acquire images (Bergman-Labora, Sweden). The macro confocal consisted of a horizontally placed AZ100 macroscope (Nikon, Japan) adapted with a specially built XYZ motorized stage (Prior Scientific fitted by Bergman-Labora) and supplied with diascopic white light and episcopic fluorescence light (Nikon). A climate enclosure with passive humidification was designed to surround the stage area to keep plants in a humid, dark environment. The AZ100 macroscope was connected to a C2+ confocal laser scanning system (Nikon) equipped with lasers for 405 nm, 457/488/514 nm and 561 nm excitation and a transmitted light detector. […] Excitation was at 488 nm and emission detected with a 525/50 filter. DII Venus fluorescence intensities from a single layer were normalized to initial intensity, averaged and compared (Standard deviation of the mean). […]
The conditions of test [4]: reported in literature (ref. 13); cited from earlier work.

SMILES strings stand for the structures.

`O=C(O)c1ccccc1` [benzoic acid]: the “effect on root growth rate” value in test [1] is “maintained their growth rates”. Further, in test [2], the “effect on DII-Venus fluorescence intensity” value is reported as “preserved their fluorescence”. For the same compound, in test [3], the “effect on DR5 reporter fluorescent intensity” value is recorded as “did not display alterations in fluorescent intensity”.
For the compound `O=C(O)CC1C(=O)Nc2ccccc21` (centres unmarked) [oxIAA, 2-oxindole-3-acetic acid], the “activity in previous bioassays” value in test [4] is “inactive”.
For `O=C(O)Cc1c[nH]c2ccccc12` [IAA, indole-3-acetic acid], the “root growth rate after 60 min of delivery” value in test [1] (OEIP delivery at 1 μA, average of 5 trials, after 60 min) came to 2.4±0.7 μm min^−1. The “root growth rate before the decrease” value in test [1] (OEIP delivery at 1 μA, average of 5 trials, initial rate) turned out to be 4.7±1.0 μm min^−1. The “effect on root growth rate” value in test [1] is “rapid decrease in growth rate”. Moreover, in test [2] (DII-Venus seedlings, OEIP delivery), the “onset of strong fluorescence reduction” value was 30 to 60 min. Further, the “effect on DII-Venus fluorescence intensity” value in test [2] was “strong and significant decrease in fluorescence”. Also, in test [3], the “effect on DR5 reporter fluorescent intensity” value is “signal continued to increase between 2 and 3 hours”; the “onset of fluorescence in plant tissues” value came out at 1 h.
